In ChEMBL document CHEMBL4304773, “Nitroimidazole-containing compounds and their antibacterial and antitubercular activities” (2019):
Values after ≈ are worked out from the molar mass of the structure shown.

Legend:
Type in all cases: functional
Klebsiella pneumoniae [1] = experiment: Antibacterial activity against Klebsiella pneumoniae after 24 hrs
Escherichia coli [2] = experiment: Antibacterial activity against Escherichia coli ATCC 25922 after 24 hrs; conditions: ATCC 25922, 24 h
Pseudomonas aeruginosa [3] = experiment: Antibacterial activity against Pseudomonas aeruginosa ATCC 27853 after 24 hrs; conditions: ATCC 27853, 24 h
Staphylococcus aureus [4] = experiment: Antibacterial activity against Staphylococcus aureus ATCC 25923 after 24 hrs; conditions: ATCC 25923, 24 h
Staphylococcus aureus [5] = experiment: Antibacterial activity against methicillin-resistant Staphylococcus aureus after 24 hrs
Staphylococcus aureus [6] = experiment: Antibacterial activity against Staphylococcus aureus ATCC 29213 after 24 hrs; conditions: ATCC 29213, 24 h
Enterococcus faecalis [7] = experiment: Antibacterial activity against Enterococcus faecalis after 24 hrs
Pseudomonas aeruginosa [8] = experiment: Antibacterial activity against Pseudomonas aeruginosa after 24 hrs
Escherichia coli [9] = experiment: Antibacterial activity against Escherichia coli
Enterococcus faecalis [10] = experiment: Antibacterial activity against Enterococcus faecalis
Acinetobacter baumannii = experiment: Antibacterial activity against Acinetobacter baumannii
Pseudomonas aeruginosa [11] = experiment: Antibacterial activity against Pseudomonas aeruginosa
Staphylococcus aureus [12] = experiment: Antibacterial activity against Staphylococcus aureus ATCC 29213
Klebsiella pneumoniae [13] = experiment: Antibacterial activity against Klebsiella pneumoniae
Staphylococcus aureus [14] = experiment: Antibacterial activity against methicillin-resistant Staphylococcus aureus N315
Pseudomonas aeruginosa [15] = experiment: Antibacterial activity against Pseudomonas aeruginosa ATCC 27853
Staphylococcus aureus [16] = experiment: Antibacterial activity against Staphylococcus aureus ATCC 25923
Escherichia coli [17] = experiment: Antibacterial activity against Escherichia coli ATCC 25922
Staphylococcus aureus [18] = experiment: Antibacterial activity against Staphylococcus aureus
Candida albicans = experiment: Antifungal activity against Candida albicans
Bacillus subtilis = experiment: Antibacterial activity against Bacillus subtilis

Compound | MIC (Klebsiella pneumoniae [1]) | MIC (Escherichia coli [2]) | MIC (Pseudomonas aeruginosa [3]) | MIC (Staphylococcus aureus [4]) | MIC (Staphylococcus aureus [5]) | MIC (Staphylococcus aureus [6]) | MIC (Enterococcus faecalis [7]) | MIC (Pseudomonas aeruginosa [8]) | other results
CCCCOc1c(OC)cc(/C=C(\C#N)n2cc([N+](=O)[O-])nc2C)c2c1CN1CCc3cc4c(cc3C1C2)OCO4 (stereo unspecified) | 3 to 1020 µM (≈ 1.67 to 569 µg/mL) | 3 to 1020 µM (≈ 1.67 to 569 µg/mL) | 3 to 1020 µM (≈ 1.67 to 569 µg/mL) | 3 to 1020 µM (≈ 1.67 to 569 µg/mL) | 3 to 1020 µM (≈ 1.67 to 569 µg/mL) | 3 to 1020 µM (≈ 1.67 to 569 µg/mL) | 3 to 1020 µM (≈ 1.67 to 569 µg/mL) | 3 to 1020 µM (≈ 1.67 to 569 µg/mL) | –
CCCCCCCCN1CCN(c2ccc3c4c(cccc24)C(=O)N(CC(O)Cn2c([N+](=O)[O-])cnc2C)C3=O)CC1 (stereo unspecified) | – | – | – | – | – | – | – | – | MIC (Escherichia coli [9]): 13 to 1020 µM; MIC (Enterococcus faecalis [10]): 13 to 1020 µM (≈ 7.5 to 588 µg/mL); MIC (Acinetobacter baumannii): 13 to 1020 µM (≈ 7.5 to 588 µg/mL); MIC (Pseudomonas aeruginosa [11]): 13 to 1020 µM; MIC (Staphylococcus aureus [12]): 13 to 1020 µM (≈ 7.5 to 588 µg/mL); MIC (Klebsiella pneumoniae [13]): 13 to 1020 µM (≈ 7.5 to 588 µg/mL); MIC (Staphylococcus aureus [14]): 13 to 1020 µM (≈ 7.5 to 588 µg/mL); MIC (Pseudomonas aeruginosa [15]): 13 to 1020 µM (≈ 7.5 to 588 µg/mL); MIC (Staphylococcus aureus [16]): 13 to 1020 µM (≈ 7.5 to 588 µg/mL); MIC (Escherichia coli [17]): 13 to 1020 µM (≈ 7.5 to 588 µg/mL)
COc1cc(/C=C(\C#N)n2cc([N+](=O)[O-])nc2C)c2c(c1OCc1ccc([N+](=O)[O-])cc1)CN1CCc3cc4c(cc3C1C2)OCO4 (stereo unspecified) | 3 to 1020 µM (≈ 1.91 to 650 µg/mL) | 3 to 1020 µM (≈ 1.91 to 650 µg/mL) | 3 to 1020 µM (≈ 1.91 to 650 µg/mL) | 3 to 1020 µM (≈ 1.91 to 650 µg/mL) | 3 to 1020 µM (≈ 1.91 to 650 µg/mL) | 3 to 1020 µM (≈ 1.91 to 650 µg/mL) | 3 to 1020 µM (≈ 1.91 to 650 µg/mL) | 3 to 1020 µM (≈ 1.91 to 650 µg/mL) | –
COc1cc(/C=C(\C#N)n2cc([N+](=O)[O-])nc2C)c2c(c1OCC(C)=O)CN1CCc3cc4c(cc3C1C2)OCO4 (stereo unspecified) | 3 to 1020 µM (≈ 1.67 to 569 µg/mL) | 3 to 1020 µM (≈ 1.67 to 569 µg/mL) | 3 to 1020 µM (≈ 1.67 to 569 µg/mL) | 3 to 1020 µM (≈ 1.67 to 569 µg/mL) | 3 to 1020 µM (≈ 1.67 to 569 µg/mL) | 3 to 1020 µM (≈ 1.67 to 569 µg/mL) | 3 to 1020 µM (≈ 1.67 to 569 µg/mL) | 3 to 1020 µM (≈ 1.67 to 569 µg/mL) | –
COc1cc(/C=C(\C#N)n2cc([N+](=O)[O-])nc2C)c2c(c1OCc1ccccc1Cl)CN1CCc3cc4c(cc3C1C2)OCO4 (stereo unspecified) | 3 to 1020 µM (≈ 1.88 to 639 µg/mL) | 3 to 1020 µM (≈ 1.88 to 639 µg/mL) | 3 to 1020 µM (≈ 1.88 to 639 µg/mL) | 3 to 1020 µM (≈ 1.88 to 639 µg/mL) | 3 to 1020 µM (≈ 1.88 to 639 µg/mL) | 3 to 1020 µM (≈ 1.88 to 639 µg/mL) | 3 to 1020 µM (≈ 1.88 to 639 µg/mL) | 3 to 1020 µM (≈ 1.88 to 639 µg/mL) | –
COc1cc(/C=C(\C#N)n2cc([N+](=O)[O-])nc2C)c2c(c1OCc1ccc(Cl)cc1)CN1CCc3cc4c(cc3C1C2)OCO4 (stereo unspecified) | 3 to 1020 µM (≈ 1.88 to 639 µg/mL) | 3 to 1020 µM (≈ 1.88 to 639 µg/mL) | 3 to 1020 µM (≈ 1.88 to 639 µg/mL) | 3 to 1020 µM (≈ 1.88 to 639 µg/mL) | 3 to 1020 µM (≈ 1.88 to 639 µg/mL) | 3 to 1020 µM (≈ 1.88 to 639 µg/mL) | 3 to 1020 µM (≈ 1.88 to 639 µg/mL) | 3 to 1020 µM (≈ 1.88 to 639 µg/mL) | –
COc1cc(/C=C(\C#N)n2cc([N+](=O)[O-])nc2C)c2c(c1OCCO)CN1CCc3cc4c(cc3C1C2)OCO4 (stereo unspecified) | 3 to 1020 µM (≈ 1.64 to 557 µg/mL) | 3 to 1020 µM (≈ 1.64 to 557 µg/mL) | 3 to 1020 µM (≈ 1.64 to 557 µg/mL) | 3 to 1020 µM (≈ 1.64 to 557 µg/mL) | 3 to 1020 µM (≈ 1.64 to 557 µg/mL) | 3 to 1020 µM (≈ 1.64 to 557 µg/mL) | 3 to 1020 µM (≈ 1.64 to 557 µg/mL) | 3 to 1020 µM (≈ 1.64 to 557 µg/mL) | –
C#CCOc1c(OC)cc(/C=C(\C#N)n2cc([N+](=O)[O-])nc2C)c2c1CN1CCc3cc4c(cc3C1C2)OCO4 (stereo unspecified) | 3 to 1020 µM (≈ 1.62 to 551 µg/mL) | 3 to 1020 µM (≈ 1.62 to 551 µg/mL) | 3 to 1020 µM (≈ 1.62 to 551 µg/mL) | 3 to 1020 µM (≈ 1.62 to 551 µg/mL) | 3 to 1020 µM (≈ 1.62 to 551 µg/mL) | 3 to 1020 µM (≈ 1.62 to 551 µg/mL) | 3 to 1020 µM (≈ 1.62 to 551 µg/mL) | 3 to 1020 µM (≈ 1.62 to 551 µg/mL) | –
CC(=O)N1N=C(Cn2c([N+](=O)[O-])cnc2C)OC1(C)c1ccc(C)cc1 (stereo unspecified) | – | – | – | – | – | – | – | – | MIC (Escherichia coli [9]): 0.25 to 0.5 µg/mL; MIC (Staphylococcus aureus [18]): 0.25 to 0.5 µg/mL (≈ 0.7 to 1.4 µM); MIC (Pseudomonas aeruginosa [11]): 0.25 to 0.5 µg/mL; MIC (Candida albicans): 0.25 to 0.5 µg/mL (≈ 0.7 to 1.4 µM); MIC (Bacillus subtilis): 0.25 to 0.5 µg/mL (≈ 0.7 to 1.4 µM)
